Experimental data from patent publication US20210261636A1, “NEOANTIGENS EXPRESSED IN MULTIPLE MYELOMA AND THEIR USES” (Janssen Biotech, Inc., priority 2020, published 2021).

Assays:
CD8+ T cells = experiment: Exogenous autologous healthy donor restimulation assay, TNFα and IFNγ production by CD8+ T cells; format: cell-based, human; parameters: Frequency (TNFα+ IFNγ+ CD8 T cells): unit not given here; conditions: for Fold change (CD8+) vs. DMSO: maximum CD8+ T-cell response (TNFα and IFNγ); for Fold change (CD8+) vs. DMSO / Frequency (TNFα+ IFNγ+ CD8 T cells): donor independent, peptide pool 10 μg/mL, healthy donors; for Frequency (TNFα+ IFNγ+ CD8 T cells): maximum CD8+ T-cell response; for Immunogenic (yes/no): positive if CD8+ and/or CD4+ double positive TNFα/IFNγ frequency >=3-fold over DMSO and at least 0.01%
Description: (§1) Immunogenicity responses were measured by estimating TNFα IFNγ double positive cells in the CD4+ and/or CD8+ T-cell populations. A response is considered positive if TNFα IFNγ double positive fraction was greater than or equal to three-fold over unstimulated cells (DMSO negative control) with a minimum frequency >=0.01%. […]
(§2) Overlapping 15-mer peptides were designed to span each indicated neoantigen. Their ability to activate T cells was assessed using known methods, such as the assay defnied as exogenous autologous normal donor restimulation assay. The peptides were used as pools using TNFα and IFNγ production by CD8^+ and CD4^+ T cells as a readout. Maximum frequency of CD8^+TNFα^+IFNγ^+ and CD4^+TNFα^+IFNγ^+ T cells and maximum fold change over background for each pool of peptides were analyzed, which were calculated as the highest frequency of CD8^+ TNFα^+IFNγ^+ and CD4^+ TNFα^+IFNγ^+ T cells and resulting fold change across the normal donors evaluated for the peptide.
(§3) CD1c+Dendritic Cells (CD1c+DC) isolated from human healthy PBMCs were thawed using media (IMDM (Gibco) supplemented with glutamine, HEPES, 5% human serum (Sigma), and 1× Pen-Strep). DC cells were resuspended in media supplemented with IL-4 (Peprotech, 20 ng/mL) and GM-CSF (Gibco, 20 ng/mL), plated in 6 well microplates, and rested overnight at 37° C. and 5% CO2 incubator. The following day, DC cells were counted and plated in a 96 well round bottom microplate at a concentration of 30,000 viable cells per well. Lyophilized neoantigen peptide pools (15-mer peptides with 8-mer overlapping peptide sequences) were solubilized in 100% DMSO with a stock concentration of 20 mg/mL Neoantigen peptides pools were added to DCs for a final concentration of 10 μg/mL and rested for 2 hours at 37° C. and 5% CO2 incubator. CEF Peptide Pool “Plus” (Cellular Technologies, Ltd.) was utilized as a positive control (each viral peptide at a final concentration of 4 ug/ml) and DMSO at the same final concentration (0.05%) as the experimental peptides was utilized as a negative control. After 2 hours, DC cells were irradiated with 50 gray of ionizing radiation. Autologous CD3+ Pan-T cells isolated from human normal PBMCs were thawed using media. Following irradiation, autologous Pan-T cells were added to the irradiated DCs at 300,000 viable cells per well. Human IL-15 (Peprotech) was added to all wells at final concentration of 10 ng/ml. Plates were incubated at 37° C. and 5% CO2 incubator for a total of 12 days. Media was refreshed every 2-3 days with IL-15 (R&D System, 10 ng/mL final concentration) and IL-2 (R&D systems, 10 IU/mL final concentration).
(§4) On Day 11, cells were re-stimulated with identical experimental peptide pools or controls, at same concentration as peptide stimulation on Day 1. Protein Inhibitor Cocktail (eBioscience) was added to every well and plate was incubated overnight for 14-16 hours at 37° C. and 5% CO2 incubator. On Day 12, cells were stained for surface and intracellular flow cytometry analysis. The cells were washed with PBS and stained with Live/Dead Fixable Aqua Dead Cell stain (Thermo-Fisher). Following the live/dead stain, cells were blocked using Biotin-Free Fc Receptor Blocker (Accurate Chemical & Scientific Corp). Extracellular cellular flow panel (1 μL/antibody per well in 50 μL) consisted of CD3 PerCP-Cy5.5 (Biolegend), CD4 BV421 (Biolegend), and CD8 APC-Cy7 (Biolegend). After extracellular staining, cells were fixed and permeabilized using Foxp3/Transcription Factor Staining Buffer Set (eBioscience) and stained for intracellular proteins (1:50 dilution) using TNFα FITC (R&D Systems) and IFNγ BV785 (Biolegend). Cells were washed and resuspended in stain buffer, analyzed, and recorded in a BD Celesta flow cytometer.
(§5) Flow cytometry analysis was conducted on FlowJo v10.6 software. Cells were gated on live, singlet, CD3+, CD4+ and CD8+ T cells. The CD8+ and CD4+ T cells were analyzed for TNFα and IFNγ expression. […]

CD4+ T cells = experiment: Exogenous autologous healthy donor restimulation assay, TNFα and IFNγ production by CD4+ T cells; format: cell-based, human; parameters: Frequency (TNFα+ IFNγ+ CD4 T cells): unit not given here; conditions: donor independent, peptide pool 10 μg/mL, healthy donors; for Fold change (CD4+) vs. DMSO: maximum CD4+ T-cell response (TNFα and IFNγ); for Frequency (TNFα+ IFNγ+ CD4 T cells): maximum CD4+ T-cell response
Description: as §1, §2, §3, §4, §5

Sequence	Fold change (CD8+) vs. DMSO (CD8+ T cells)	Frequency (TNFα+ IFNγ+ CD8 T cells) (CD8+ T cells)	Immunogenic (yes/no) (CD8+ T cells)	Fold change (CD4+) vs. DMSO (CD4+ T cells)	Frequency (TNFα+ IFNγ+ CD4 T cells) (CD4+ T cells)
FGTSHMMVRHF [AS33, alternative splicing, CFAP54]	47.27	0.49	Yes	2.78	0.009
RPGVFTDIL [FUS53, gene fusion PTPRG-> C3orf14]	76.5	0.78	Yes	6.29	0.041
KKEDVNFQVKQLIH [AS96, alternative splicing, ANKRD28]	7.34	0.15	Yes	5.47	0.027
IEKSISARITEQ [FUS36, gene fusion TNFRSF17-> SNX29]	8.7	0.013	Yes	4.69	0.008
GTTRLLSGEDFS [AS111, alternative splicing, CD55]	1.16	0.012	Yes	16.71	0.06
MDLTAIYETMQIFVKT [FUS30, gene fusion ZFP36-> UBC]	3.5	0.13	Yes	51.81	0.1
FLQKHGNENTVLMLETLSEIRYGYVSCVCCPLLSPYGRCLN [AS26, alternative splicing, AGFG1]	84.36	0.75	Yes	5.7	0.097
KLLYEVSQKMVL [AS50, alternative splicing, PDZRN4]	3.032	0.038	Yes	8.29	0.041
NAVRSYYETNGGMSFLRITP [FUS19, gene fusion CADPS2-> RNF148]	12.96	0.016	Yes	1.26	0.009
NASLHEVKDFFVPFPLPLLHLTSLKRNKLFN [AS110, alternative splicing, CCDC88A]	228.56	4.21	Yes	36.021	0.21
QLKKMVSKVRLRRARLPGRAHRSLPRPVESVPAQPSKLPRRAGSPGAVLSDLLRTPPRGACRLVRESPYGSWEGGGRRQSTKAWSGGYLTPAAHPPSSLPLSLELSVGQCSFSFVFINTNKGSYLVVDLRQSSTPVPI [AS11]	4	0.033	Yes	69.02	0.45
GEKILFIRVKFYFSLILFLWEDSEFELGEI [AS9, alternative splicing, GAS2]	358.4	1.99	Yes	20.874	0.099
QLSVVTRDDYNSSELK [AS87, alternative splicing, BMP6]	44.64	1.25	Yes	4.45	0.016
